Assay results as given in PMC6277767, “Broad and Region-Specific Impacts of the Synthetic Cannabinoid CP 55,940 in Adolescent and Adult Female Mouse Brains” (Frontiers in Molecular Neuroscience, 2018).

System: CD1 female mouse brain lipidome
Experiment: Brain-region lipid levels (HPLC/MS/MS lipidomics) 2 h after single i.p. 3 mg/kg CP 55,940 vs vehicle
Format: in vivo
Design: N-arachidonoyl phenylalanine level, Mean / N-stearoyl tryptophan level, Mean / N-stearoyl proline level, Mean / N-stearoyl leucine level, Mean / N-stearoyl phenylalanine level, Mean / N-stearoyl serine level, Mean / N-stearoyl methionine level, Mean: unit: moles per gram
Settings: brainstem
Procedure: The Bloomington Institutional Animal Care and Use Committee of Indiana University reviewed and approved the animal procedures. Female mice from the CD1 strain were utilized to match our study examining THC’s effects on the brain lipidome ([Leishman et al., 2018]). Mice were given a single i.p. injection of either 3 mg/kg CP or 1:1:18 cremophor:ethanol:saline vehicle (please refer to the section “3 mg/kg CP Is Relevant for Synthetic Cannabinoid Abuse and Has Stronger Effects on the Female Mouse Brain Lipidome During Adolescence” for a justification of dose and use of female mice). Three different age groups were given injections: PND 35 and PND 50 adolescents, and adult mice (PND 113). At least eight mice in each age group received CP and at least eight received vehicle. Matching the THC study time course ([Leishman et al., 2018]), mice were sacrificed via rapid decapitation 2 h after injection. Brains were immediately removed and flash-frozen in liquid nitrogen, and then stored at -80°C until dissections were performed. Brains were dissected on an ice-cold dissection plate into the following regions: STR, HIPP, CER, THAL, CTX, HYP, MID, and STEM. These abbreviations for these brain areas will be used exclusively when discussing the results generated by these specific dissections. Each dissected area was immediately placed in liquid nitrogen and then stored at -80°C until used for lipid extraction.
Tissue extracts were performed as previously described ([Bradshaw et al., 2006]; [Stuart et al., 2013]; [Raboune et al., 2014]; [Leishman et al., 2016a],[b], [2017], [2018]). First, samples were shock frozen in liquid nitrogen, weighed, and transferred to a centrifuge tube. The mass of the largest sample was multiplied by 50 to determine how many milliliters of HPLC-grade methanol (Fisher, Fair Lawn, NJ, United States) to add. Then, samples were spiked with 500 pmol deuterium-labeled NAGly (d8NAGly; Cayman Chemical, Ann Arbor, MI, United States). Samples were placed on ice in darkness for 2 h then individually homogenized and centrifuged at 19,000 × g for 20 min at 20°C. Supernatants were diluted with HPLC water (purified in house) to make a solution of 75% water, 25% supernatant. Lipids were partially purified on C18 solid phase extraction columns (Agilent, Palo Alto, CA, United States). A series of four elutions with 1.5 mL of 60%, 75%, 85%, and 100% methanol were collected ([Stuart et al., 2013]; [Leishman et al., 2016a],[b], [2018]).
As previously described ([Bradshaw et al., 2006]; [Tan et al., 2006]; [Smoum et al., 2010]; [Stuart et al., 2013]; [Tortoriello et al., 2013]; [Raboune et al., 2014]; [Leishman et al., 2016a],[b], [2017], [2018]), samples were analyzed using an Applied Biosystems API 3000 triple quadrupole mass spectrometer with electrospray ionization (Foster City, CA, United States). Using an Agilent XDB-C18 reversed phase analytical column and optimized mobile phase gradients, 20 μL from each elution were chromatographed. Two Shimadzu 10ADvp pumps (Columbia, MD, United States) provided the pressure for gradient elution. Mobile phase A: 20% methanol, 80% water (v/v) and 1 mM ammonium acetate (Sigma, St. Louis, MO, United States). Mobile phase B: 100% methanol, 1 mM ammonium acetate. Every method run began with 0% mobile phase B, reached 100% mobile phase B flowing at 0.2 mL/min, and gradually returned to 0% mobile phase B.
This screening library will be referred to as the lipidome when discussing data from this study. HPLC/MS/MS data were analyzed using Analyst software (Applied Biosystems) ([Bradshaw et al., 2006]; [Tan et al., 2006]; [Stuart et al., 2013]; [Tortoriello et al., 2013]; [Raboune et al., 2014]; [Leishman et al., 2016a],[b], [2017], [2018]). Chromatograms (Supplementary Figure 3) were generated by determining the retention time of analytes from the analytical column with a [M-1] or [M+1] parent peak and a fragmentation peak corresponding to the programmed values. […]

[1] = PND 50, 3 mg/kg CP 55,940, one-way ANOVA p .000
[2] = PND 50, 3 mg/kg CP 55,940, one-way ANOVA p .001
[3] = PND 50, 3 mg/kg CP 55,940, one-way ANOVA p .002
[4] = PND 50, 3 mg/kg CP 55,940, one-way ANOVA p .003
[5] = PND 50, 3 mg/kg CP 55,940, one-way ANOVA p .006
[6] = PND 50, 3 mg/kg CP 55,940, one-way ANOVA p .007
[7] = PND 50, 3 mg/kg CP 55,940, one-way ANOVA p .008
[8] = PND 50, 3 mg/kg CP 55,940, one-way ANOVA p .014
[9] = PND 50, 3 mg/kg CP 55,940, one-way ANOVA p .015
[10] = PND 50, 3 mg/kg CP 55,940, one-way ANOVA p .018
[11] = PND 50, 3 mg/kg CP 55,940, one-way ANOVA p .023
[12] = PND 50, 3 mg/kg CP 55,940, one-way ANOVA p .041
[13] = PND 50, 3 mg/kg CP 55,940, one-way ANOVA p .043

CCCCCCC(C)(C)c1ccc([C@@H]2C[C@H](O)CC[C@H]2CCCO)c(O)c1 [CP 55,940]
N-arachidonoyl glycine level, Mean (PND 50, 3 mg/kg CP 55,940): 9.26E-12
N-arachidonoyl methionine level, Mean (PND 50, 3 mg/kg CP 55,940): PISSR
N-arachidonoyl phenylalanine level, Mean (PND 50, 3 mg/kg CP 55,940): 3.18E-13
N-arachidonoyl proline level, Mean (PND 50, 3 mg/kg CP 55,940): BDL
N-arachidonoyl serine level, Mean (PND 50, 3 mg/kg CP 55,940): 5.36E-12
N-arachidonoyl taurine level, Mean (PND 50, 3 mg/kg CP 55,940): 1.14E-11
N-arachidonoyl tryptophan level, Mean (PND 50, 3 mg/kg CP 55,940): BDL
N-arachidonoyl tyrosine level, Mean (PND 50, 3 mg/kg CP 55,940): 2.42E-13
N-docosahexaenoyl GABA level, Mean (PND 50, 3 mg/kg CP 55,940): 9.05E-13
N-docosahexaenoyl alanine level, Mean (PND 50, 3 mg/kg CP 55,940): PISSR
N-docosahexaenoyl ethanolamine level, Mean (PND 50, 3 mg/kg CP 55,940): 3.73E-11
N-docosahexaenoyl glycine level, Mean (PND 50, 3 mg/kg CP 55,940): 1.5E-12
N-docosahexaenoyl leucine level, Mean (PND 50, 3 mg/kg CP 55,940): 1.24E-13
N-docosahexaenoyl methionine level, Mean (PND 50, 3 mg/kg CP 55,940): PISSR
N-docosahexaenoyl phenylalanine level, Mean (PND 50, 3 mg/kg CP 55,940): 1.89E-13
N-docosahexaenoyl proline level, Mean (PND 50, 3 mg/kg CP 55,940): BDL
N-docosahexaenoyl serine level, Mean (PND 50, 3 mg/kg CP 55,940): 1.33E-11
N-docosahexaenoyl tryptophan level, Mean (PND 50, 3 mg/kg CP 55,940): BDL
N-docosahexaenoyl tyrosine level, Mean (PND 50, 3 mg/kg CP 55,940): 4.65E-13
N-docosahexaenoyl valine level, Mean (PND 50, 3 mg/kg CP 55,940): BDL
N-linoleoyl GABA level, Mean (PND 50, 3 mg/kg CP 55,940): 6.01E-13
N-linoleoyl alanine level, Mean (PND 50, 3 mg/kg CP 55,940): 1.01E-13
N-linoleoyl ethanolamine level, Mean (PND 50, 3 mg/kg CP 55,940): 3.38E-11
N-linoleoyl glycine level, Mean (PND 50, 3 mg/kg CP 55,940): 4.12E-13
N-linoleoyl leucine level, Mean (PND 50, 3 mg/kg CP 55,940): 4.41E-14
N-linoleoyl methionine level, Mean (PND 50, 3 mg/kg CP 55,940): PISSR
N-linoleoyl phenylalanine level, Mean (PND 50, 3 mg/kg CP 55,940): PISSR
N-linoleoyl proline level, Mean (PND 50, 3 mg/kg CP 55,940): BDL
N-linoleoyl serine level, Mean (PND 50, 3 mg/kg CP 55,940): 6.34E-11
N-linoleoyl tryptophan level, Mean (PND 50, 3 mg/kg CP 55,940): BDL
N-linoleoyl tyrosine level, Mean (PND 50, 3 mg/kg CP 55,940): PISSR
N-linoleoyl valine level, Mean (PND 50, 3 mg/kg CP 55,940): BDL
N-nervonoyl valine level, Mean (PND 50, 3 mg/kg CP 55,940): BDL
N-oleoyl GABA level, Mean (PND 50, 3 mg/kg CP 55,940): 3.95E-12
N-oleoyl alanine level, Mean (PND 50, 3 mg/kg CP 55,940): 1.3E-12
N-oleoyl dopamine level, Mean (PND 50, 3 mg/kg CP 55,940): BDL
N-oleoyl ethanolamine level, Mean (PND 50, 3 mg/kg CP 55,940): 7.29E-11
N-oleoyl glycine level, Mean (PND 50, 3 mg/kg CP 55,940): 5.38E-12
N-oleoyl leucine level, Mean (PND 50, 3 mg/kg CP 55,940): 4.93E-13
N-oleoyl methionine level, Mean (PND 50, 3 mg/kg CP 55,940): 1.84E-13
N-oleoyl phenylalanine level, Mean (PND 50, 3 mg/kg CP 55,940): 7.71E-13
N-oleoyl proline level, Mean (PND 50, 3 mg/kg CP 55,940): BDL
N-oleoyl serine level, Mean (PND 50, 3 mg/kg CP 55,940): 1.1E-10
N-oleoyl tryptophan level, Mean (PND 50, 3 mg/kg CP 55,940): BDL
N-oleoyl tyrosine level, Mean (PND 50, 3 mg/kg CP 55,940): 2.91E-13
N-oleoyl valine level, Mean (PND 50, 3 mg/kg CP 55,940): 6.02E-14
N-palmitoyl GABA level, Mean (PND 50, 3 mg/kg CP 55,940): 6.41E-12
N-palmitoyl alanine level, Mean (PND 50, 3 mg/kg CP 55,940): 3.07E-12
N-palmitoyl ethanolamine level, Mean (PND 50, 3 mg/kg CP 55,940): 6.28E-11
N-palmitoyl glycine level, Mean (PND 50, 3 mg/kg CP 55,940): 1.47E-11
N-palmitoyl leucine level, Mean (PND 50, 3 mg/kg CP 55,940): 1.11E-12
N-palmitoyl methionine level, Mean (PND 50, 3 mg/kg CP 55,940): 7.37E-13
N-palmitoyl phenylalanine level, Mean (PND 50, 3 mg/kg CP 55,940): 1.09E-12
N-palmitoyl proline level, Mean (PND 50, 3 mg/kg CP 55,940): BDL
N-palmitoyl serine level, Mean (PND 50, 3 mg/kg CP 55,940): 2E-11
N-palmitoyl tryptophan level, Mean (PND 50, 3 mg/kg CP 55,940): BDL
N-palmitoyl tyrosine level, Mean (PND 50, 3 mg/kg CP 55,940): 5.77E-13
N-palmitoyl valine level, Mean (PND 50, 3 mg/kg CP 55,940): 1.73E-13
N-stearoyl GABA level, Mean (PND 50, 3 mg/kg CP 55,940): 7.1E-12
N-stearoyl alanine level, Mean (PND 50, 3 mg/kg CP 55,940): 1.5E-12
N-stearoyl ethanolamine level, Mean (PND 50, 3 mg/kg CP 55,940): 2.63E-11
N-stearoyl glycine level, Mean (PND 50, 3 mg/kg CP 55,940): 4.43E-12
N-stearoyl leucine level, Mean (PND 50, 3 mg/kg CP 55,940): 7.24E-13
N-stearoyl methionine level, Mean (PND 50, 3 mg/kg CP 55,940): 8.45E-13
N-stearoyl phenylalanine level, Mean (PND 50, 3 mg/kg CP 55,940): 9.56E-13
N-stearoyl proline level, Mean (PND 50, 3 mg/kg CP 55,940): BDL
N-stearoyl serine level, Mean (PND 50, 3 mg/kg CP 55,940): 3.14E-11
N-stearoyl tryptophan level, Mean (PND 50, 3 mg/kg CP 55,940): BDL
N-stearoyl tyrosine level, Mean (PND 50, 3 mg/kg CP 55,940): 7.69E-14
Oleic acid level, Mean (PND 50, 3 mg/kg CP 55,940): 1.94E-10
PGE2 level, Mean (PND 50, 3 mg/kg CP 55,940): 1.11E-10
PhosphoLEA level, Mean (PND 50, 3 mg/kg CP 55,940): 7.34E-13
THC level, Mean (PND 50, 3 mg/kg CP 55,940): BDL
N-arachidonoyl GABA Direction (relative to Veh) [1]: ↓
N-arachidonoyl GABA Magnitude (x Veh level) [1]: 0.68 x Veh level
PGF2α Direction (relative to Veh) [1]: ↓
PGF2α Magnitude (x Veh level) [1]: 0.74 x Veh level
N-palmitoyl leucine, Direction (relative to Veh) [2]: ↑
N-palmitoyl leucine, Magnitude (x Veh level) [2]: 1.44 x Veh level
6-ketoPGF1α Direction (relative to Veh) [3]: ↓
6-ketoPGF1α Magnitude (x Veh level) [3]: 0.70 x Veh level
N-arachidonoyl taurine Direction (relative to Veh) [4]: ↓
N-arachidonoyl taurine Magnitude (x Veh level) [4]: 0.83 x Veh level
N-palmitoyl tyrosine Magnitude (x Veh level) [5]: 1.23 x Veh level
N-palmitoyl tyrosine, Direction (relative to Veh) [5]: ↑
N-arachidonoyl tyrosine, Direction (relative to Veh) [6]: ↓
N-arachidonoyl tyrosine, Magnitude (x Veh level) [6]: 0.74 x Veh level
N-arachidonoyl serine Direction (relative to Veh) [7]: ↓
N-arachidonoyl serine Magnitude (x Veh level) [7]: 0.80 x Veh level
PGE2 Direction (relative to Veh) [8]: ↓
PGE2 Magnitude (x Veh level) [8]: 0.73 x Veh level
2-linoleoyl glycerol Direction (relative to Veh) [9]: ↓
2-linoleoyl glycerol Magnitude (x Veh level) [9]: 0.74 x Veh level
Oleic acid, Direction (relative to Veh) [10]: ↓
Oleic acid, Magnitude (x Veh level) [10]: 0.84 x Veh level
N-arachidonoyl phenylalanine, Direction (relative to Veh) [11]: ↑
N-arachidonoyl phenylalanine, Magnitude (x Veh level) [11]: 1.40 x Veh level
N-oleoyl methionine, Direction (relative to Veh) [12]: ↓
N-oleoyl methionine, Magnitude (x Veh level) [12]: 0.68 x Veh level
Linoleic acid, Direction (relative to Veh) [13]: ↓
Linoleic acid, Magnitude (x Veh level) [13]: 0.81 x Veh level
2-oleoyl glycerol, Direction (relative to Veh) (PND 50, 3 mg/kg CP 55,940, one-way ANOVA p .046): ↓
